One assay concerns murine VSMC migration. In words: VSMC migration, modified Boyden chamber. It is filed as cell-based, mouse. To be noted: leptin 6 nM. Here is the method:
Migration of VSMCs: Migration was measured using a modified Boyden chamber as previously described (Grinspoon S, et al., J Clin Endocrinol Metab, 1996, 81(11):3861-3). The lower chambers contained PDGF (10 ng/mL), insulin (200 nmol/L), or 0.2% BSA (negative control) in DMEM. 2×10^5 cells were loaded into the top chamber. After 6 h, non-migrating cells were scraped from the upper surface of the filter, and the lower surface of the filter was stained with HEMA 3 Stain Set (Fisher Diagnostics, Middletown, Va.). The number of migrated VSMCs was determined by counting 4 fields at 200× magnification, of constant area per well. Values are expressed as the percentage of cells migrating in response to a chemo-attractant after subtracting the negative control. Experiments were performed thrice in triplicate wells.
FIG. 5 is a graph that depicts inhibition of migration of VSMCs toward insulin by rapamycin. […]
Primary VSMC were isolated from aortic explants of WT, ob/ob, or db/db mice (46). VSMC proliferation was determined using the Cell Titre Aqueous One Solution Proliferation Assay (Promega, Madison, Wis.). Migration to PDGF-BB was assessed in a modified Boyden chamber assay (47).

Assay [1] concerns murine femoral artery wire injury model (neointimal hyperplasia). In words: Femoral artery wire injury model, morphometry of neointimal formation. Type of assay: in vivo, mouse. Also on record: Lumen / Media / Intima / TVA (total vessel area): unit not given here. The text has this:
Animal Models and Drug Treatments. Wild type C57BL/6J background mice and mice deficient for leptin (C57BL/6J-Lepob; ob/ob) or the leptin receptor (C57BL/6J-m+/+Lepdb; db/db) were purchased from Charles Jackson Laboratories, Maine. Mice were obtained at ages 6-8 weeks old and average weight 15 g. Animals were fed standard rodent chow and tap water ad libitum. Procedures and animal care were approved by the Institutional Animal Care and Use Committee. Mice were subjected to femoral artery wire injury or sham injury described below 24 hr prior to starting pharmacological treatments. Sirolimus was administered by intraperitoneal injection once per day for 14 days as a suspension in 0.2% sodium carboxymethyl cellulose and 0.25% polysorbate-80; duplicate experiments were accomplished with 0.5% DMSO. Leptin or LY294002 was administered by intraperitoneal injection once per day for 14 days as a suspension in PBS. Plasma leptin levels were measured at baseline, 3, 6, and 10 hr after leptin injection using an ELISA assay (R&D). Leptin plus the vehicle used for both sirolimus and LY294002 was used as the control group for the treatment groups with sirolimus and LY294002. After the 2-week treatment, animals were processed for femoral artery morphometry.
Femoral Artery Injury Model. Endoluminal injury of bilateral femoral arteries was performed according to the method of Roque et al. with minor modification 27. […] Briefly, to denude and dilate femoral arteries, a 0.014″ angioplasty guidewire (Guidant) was passed endoluminally 3 times to the level of the aortic bifurcation. A sham protocol was performed where the arteries underwent dissection, clamping, and ligature without passage of the guidewire.
Computer-aided quantitative morphometry to measure luminal, medial, intimal, and vessel areas were performed as previously described 27 with minor modification. Mice were euthanized via CO2 asphyxiation prior to en bloc excision of hind limbs. Briefly, multiple segments of the common femoral artery at the level of injury were fixed in 10% Zinc Formalin, embedded in paraffin, sectioned at […] thickness, and subjected to Elastic-Van Gieson staining at a Columbia University Core Histology facility. In many cases, arteries underwent immunohistochemical staining for smooth muscle a-actin to highlight the media and neointima. Photomicrographs were captured on Adobe Photoshop 7.0 and transferred to Scion Image software for quantitative analysis. Specimens were analyzed by two independent operators blinded to the treatment groups. Microsoft Excel software was used to calculate the RNI values from I/M ratios in the absence and presence of pharmacological inhibitors, as detailed in the text.
Surgical Procedures: The mouse femoral artery wire injury model of was used with minor modifications (Roque M, et al., Arterioscler Thromb Vasc Biol, 2000, 20(2):335-42). Briefly, forty-two male mice were studied. Endoluminal injury to the common femoral artery was produced by either 3 passages of a 0.014″ diameter angioplasty guidewire (Guidant, Santa Clara, Calif.). […] While being viewed under a surgical microscope, a groin incision was made and the femoral artery was isolated and temporarily clamped distal to the inguinal ligament. An arteriotomy was performed and the guidewire was passed 3 times to the level of the aortic bifurcation. The artery was then ligated proximal to the arteriotomy. A sham protocol was carried out on the contralateral side where the arteries underwent dissection, temporary clamping, and ligature, without passage of the wire. The formation of the neointima was confirmed in this model as being comprised mainly of VSMCs through immunohistochemical staining of representative sections for α-smooth muscle actin via a commercial kit (Sigma).
For all treatment protocols, rapamycin was administered by intraperitoneal injection once per day, for 14 days, as a suspension in 0.2% sodium carboxymethyl cellulose and 0.25% polysorbate-80. […]

The mark [2] stands for this setting: wire injury, leptin 0.4 mg/kg daily i.p. 14 days, mean ± SD.

Take “Leptin: recombinant leptin; hormone derived from adipose tissue, encoded by the Ob gene”: the “PDGF-induced migration of VSMC” value with murine VSMC migration (WT VSMC) is on record as “enhanced”. The “PDGF-induced migration of VSMC” value with murine VSMC migration (db/db VSMC) is “not”. The “intimal area and intimal:media ratio” value in assay [1] (Example 2, leptin 0.4 mg/kg/d i.p. 14 days vs vehicle) was “significantly increased”. In addition, in assay [1] (setting [2]), the “I/M (intima:media ratio)” value is 1.883 ± 0.140, the Intima amounted to 0.028 ± 0.004, the Lumen turned out to be 0.010 ± 0.004 and the Media was found to be 0.015 ± 0.001. For the same substance, in assay [1] (setting [2]), the “TVA (total vessel area)” value was determined as 0.053 ± 0.007.
